Tests used:
Format in all cases: binding
[1] = target: T1, SARS-CoV-2 Nsp3 Mac1 (Severe acute respiratory syndrome coronavirus 2, UniProt P0DTD1); details: fragments 0.188 to 3 mM concentration response
[2] = target: T1, SARS-CoV-2 Nsp3 Mac1; assay: biochemical; details: ADPr-peptide displacement from His6-Mac1; ± estimated SE
[3] = target: T1, SARS-CoV-2 Nsp3 Mac1; assay: biochemical

Question: With `CN(CC1CCCOC1)c1ncc(O)cn1` (stereo not drawn) [ZINC1337772170] as the compound, how does the “effect on apparent melting temperature (Tma) in DSF, in words” value (“effect on apparent melting temperature” for short) [1] read?
Answer: Its value is “not identified as binders”.

Question: What about the IC50 [2] of the same compound?
Answer: The IC50 was 971 µM.

Question: For “adenosine diphosphate ribose [ADP-ribose, reference compound]”, which “effect on apparent melting temperature” value [1] is on record?
Answer: Its value is “substantial elevation”.

Question: How did the “effect on apparent melting temperature” value [1] turn out when `Cc1c(C)n(Cc2ccco2)c2ncnc(N)c12` [ZINC3888754] was run?
Answer: The value was “stabilized Mac1”.

Question: With `Cn1cnc2c(N)nc(N)nc21` [ZINC26180281] as the compound, how does the Kd [3] read?
Answer: Its Kd is 2900 ± 700 µM.

Question: What about the “effect on apparent melting temperature” value [1] of the same compound?
Answer: The value was “stabilized Mac1”.

Question: And the IC50 [2]?
Answer: The IC50 was over 2000 µM.

Question: Which “effect on apparent melting temperature” value [1] does the source give for `Nc1nc2nccnc2c(=O)[nH]1` [pterin] here?
Answer: Its value is “not identified as binders”.

Question: And the IC50 [2]?
Answer: The IC50 was 784 µM.
